Measured values from publication PMC5908784, “Extracellular loops 2 and 3 of the calcitonin receptor selectively modify agonist binding and efficacy” (Biochemical Pharmacology, 2018).
Residue numbers refer to the chain shown, from its start. Where a SMILES comes first, the peptide text is derived from it. Bridges are numbered along the chain shown (N, C = ends).

Legend:
Experiment in all cases: ERK1/2 phosphorylation
Type in all cases: cell-based
hCTR H296A = target: T1, hCTR H296A (Homo sapiens, UniProt P30988, H296A); conditions: CV1-FlpIn cells, mean ± S.E.M.; for Emax: pERK maximal response; for EC50: pERK, three-parameter logistic fit
T1 construct: c-Myc (N); expressed in transfected cells
T1 sequence (P30988 25-474 H296A): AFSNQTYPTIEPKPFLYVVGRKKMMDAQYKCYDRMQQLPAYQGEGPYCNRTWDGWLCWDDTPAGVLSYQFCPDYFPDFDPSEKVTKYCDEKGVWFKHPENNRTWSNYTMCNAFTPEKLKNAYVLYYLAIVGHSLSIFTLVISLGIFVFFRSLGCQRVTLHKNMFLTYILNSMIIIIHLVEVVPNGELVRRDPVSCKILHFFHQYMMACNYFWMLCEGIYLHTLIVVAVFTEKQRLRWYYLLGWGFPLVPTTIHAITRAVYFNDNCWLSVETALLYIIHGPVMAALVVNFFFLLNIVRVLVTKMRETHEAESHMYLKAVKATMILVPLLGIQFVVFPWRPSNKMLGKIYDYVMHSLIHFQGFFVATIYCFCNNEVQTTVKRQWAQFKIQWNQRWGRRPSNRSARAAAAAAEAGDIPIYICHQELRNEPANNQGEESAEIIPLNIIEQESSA
Procedure: (§1) Cells (2.5 × 10^4 cells/well) were seeded into 96-well culture plates and incubated overnight. […] Data were normalized to the maximal response elicited by 10% FBS determined at 6 min.
(§2) Data were corrected for radioligand occupancy using the Cheng-Prusoff equation in Prism; as such data are reported as pKi. Emax and EC50 were estimated from concentration-response curves using with a 3-parameter logistic equation in Prism (v7). These values are a composite of functional affinity, efficacy and stimulus response coupling. […] Significance was accepted at P < 0.05.

hCTR L297A = target: T2, hCTR L297A (Homo sapiens, UniProt P30988, L297A); conditions: CV1-FlpIn cells, mean ± S.E.M.; for Emax: pERK maximal response; for EC50: pERK, three-parameter logistic fit
T2 construct: c-Myc (N); expressed in transfected cells
T2 sequence (P30988 25-474 L297A): T1 sequence (P30988 25-474 H296A) with A272H, L273A
Procedure: as §1, §2

hCTR T295A = target: T3, hCTR T295A (Homo sapiens, UniProt P30988, T295A); conditions: CV1-FlpIn cells, mean ± S.E.M.; for Emax: pERK maximal response; for EC50: pERK, three-parameter logistic fit
T3 construct: c-Myc (N); expressed in transfected cells
T3 sequence (P30988 25-474 T295A): T1 sequence (P30988 25-474 H296A) with T271A, A272H
Procedure: as §1, §2

hCTR C289A = target: T4, hCTR C289A (Homo sapiens, UniProt P30988, C289A); conditions: CV1-FlpIn cells, mean ± S.E.M.; for Emax: pERK maximal response
T4 construct: c-Myc (N); expressed in transfected cells
T4 sequence (P30988 25-474 C289A): T1 sequence (P30988 25-474 H296A) with C265A, A272H
Procedure: as §1, §2

hCTR V357A = target: T5, hCTR V357A (Homo sapiens, UniProt P30988, V357A); conditions: CV1-FlpIn cells, mean ± S.E.M.; for Emax: pERK maximal response
T5 construct: c-Myc (N); expressed in transfected cells
T5 sequence (P30988 25-474 V357A): T1 sequence (P30988 25-474 H296A) with A272H, V333A
Procedure: as §1, §2

[1] = pERK, three-parameter logistic fit

EC50 (hCTR H296A) [nM] | EC50 (hCTR L297A) [nM] | EC50 (hCTR T295A) [nM] | EC50 (hCTR C289A; [1]) [nM] | EC50 (hCTR V357A; [1]) [nM] | SMILES | Emax (hCTR H296A) [%] | Emax (hCTR L297A) [%] | Emax (hCTR T295A) [%] | Emax (hCTR C289A) [%] | Emax (hCTR V357A) [%]
91.2 | 97.7 | 20.9 |  |  | CC(C)C[C@H](NC(=O)CNC(=O)[C@H](C)NC(=O)[C@H](CC(C)C)NC(=O)[C@H](CCCNC(=N)N)NC(=O)[C@H](Cc1cnc[nH]1)NC(=O)[C@@H](NC(=O)[C@@H](NC(=O)[C@@H]1CSSC[C@H](NC(=O)[C@H](C)N)C(=O)N[C@@H](CC(=O)O)C(=O)N[C@@H]([C@@H](C)O)C(=O)N[C@@H](C)C(=O)N[C@@H]([C@@H](C)O)C(=O)N1)C(C)C)[C@@H](C)O)C(=O)N[C@@H](CC(C)C)C(=O)N[C@@H](CO)C(=O)N[C@@H](CCCNC(=N)N)C(=O)N[C@@H](CO)C(=O)NCC(=O)NCC(=O)N[C@H](C(=O)N[C@H](C(=O)N[C@@H](CCCCN)C(=O)N[C@@H](CC(N)=O)C(=O)N[C@@H](CC(N)=O)C(=O)N[C@@H](Cc1ccccc1)C(=O)N[C@H](C(=O)N1CCC[C@H]1C(=O)N[C@H](C(=O)N[C@@H](CC(N)=O)C(=O)N[C@H](C(=O)NCC(=O)N[C@@H](CO)C(=O)N[C@@H](CCCCN)C(=O)N[C@@H](C)C(=O)N[C@@H](Cc1ccccc1)C(N)=O)C(C)C)[C@@H](C)O)C(C)C)C(C)C)C(C)C [hαCGRP] | 77 ± 11 | 73 ± 12 | 22 ± 4 |  | 
2.34 | 0.977 | 0.759 | 4.27 | 3.72 | CSCC[C@H](NC(=O)CNC(=O)[C@H](CO)NC(=O)[C@H](Cc1ccccc1)NC(=O)[C@H](CCCNC(=N)N)NC(=O)[C@H](Cc1c[nH]cn1)NC(=O)[C@H](Cc1ccccc1)NC(=O)[C@H](CC(N)=O)NC(=O)[C@H](CC(N)=O)NC(=O)[C@H](CC(C)C)NC(=O)[C@H](CC(N)=O)NC(=O)[C@H](CCCNC(=N)N)NC(=O)[C@H](Cc1c[nH]c2ccccc12)NC(=O)[C@H](Cc1ccc(O)cc1)NC(=O)[C@H](C)NC(=O)[C@H](CO)NC(=O)[C@H](CC(C)C)NC(=O)[C@@H](NC(=O)[C@@H]1CSSC[C@H](N)C(=O)N[C@@H](CO)C(=O)N[C@@H](CC(N)=O)C(=O)N[C@@H](CC(C)C)C(=O)N[C@@H](CO)C(=O)N[C@@H]([C@@H](C)O)C(=O)N1)C(C)C)C(=O)NCC(=O)N[C@@H](Cc1ccccc1)C(=O)NCC(=O)N1CCC[C@H]1C(=O)N[C@@H](CCC(=O)O)C(=O)N[C@H](C(=O)N1CCC[C@H]1C(N)=O)[C@@H](C)O [pCT] (H-CSNLSTCVLSAYWRNLNNFHRFSGMGFGPETP-NH2; disulfide 1-7) | 163 ± 10 | 59 ± 4 | 50 ± 5 | 38 ± 4 | 83 ± 10
 |  |  |  |  | CC(C)C[C@H](NC(=O)[C@H](CCCCN)NC(=O)CNC(=O)[C@H](CC(C)C)NC(=O)[C@@H](NC(=O)[C@@H]1CSSC[C@H](N)C(=O)N[C@@H](CO)C(=O)N[C@@H](CC(N)=O)C(=O)N[C@@H](CC(C)C)C(=O)N[C@@H](CO)C(=O)N[C@@H]([C@@H](C)O)C(=O)N1)C(C)C)C(=O)N[C@@H](CO)C(=O)N[C@@H](CCC(N)=O)C(=O)N[C@@H](CCC(=O)O)C(=O)N[C@@H](CC(C)C)C(=O)N[C@@H](Cc1c[nH]cn1)C(=O)N[C@@H](CCCCN)C(=O)N[C@@H](CC(C)C)C(=O)N[C@@H](CCC(N)=O)C(=O)N[C@H](C(=O)N[C@@H](Cc1ccc(O)cc1)C(=O)N1CCC[C@H]1C(=O)N[C@@H](CCCNC(=N)N)C(=O)N[C@H](C(=O)N[C@@H](CC(N)=O)C(=O)N[C@H](C(=O)NCC(=O)N[C@@H](CO)C(=O)NCC(=O)N[C@H](C(=O)N1CCC[C@H]1C(N)=O)[C@@H](C)O)[C@@H](C)O)[C@@H](C)O)[C@@H](C)O [sCT] | 152 ± 9 | 68 ± 4 | 49 ± 4 | 64 ± 11 | 82 ± 7
 |  |  |  |  | CC[C@H](C)[C@H](NC(=O)[C@H](C)NC(=O)[C@@H](NC(=O)[C@H](CCC(N)=O)NC(=O)[C@@H]1CCCN1C(=O)[C@H](Cc1ccccc1)NC(=O)[C@@H](NC(=O)[C@H](Cc1c[nH]cn1)NC(=O)[C@H](Cc1ccccc1)NC(=O)[C@H](CCCCN)NC(=O)[C@H](CC(N)=O)NC(=O)[C@H](Cc1ccccc1)NC(=O)[C@H](CC(=O)O)NC(=O)[C@H](CCC(N)=O)NC(=O)[C@@H](NC(=O)[C@H](Cc1ccc(O)cc1)NC(=O)[C@@H](NC(=O)CNC(=O)[C@H](CC(C)C)NC(=O)[C@H](CCSC)NC(=O)[C@@H]1CSSC[C@H](N)C(=O)NCC(=O)N[C@@H](CC(N)=O)C(=O)N[C@@H](CC(C)C)C(=O)N[C@@H](CO)C(=O)N[C@@H]([C@@H](C)O)C(=O)N1)[C@@H](C)O)[C@@H](C)O)[C@@H](C)O)[C@@H](C)O)C(=O)NCC(=O)N[C@H](C(=O)NCC(=O)N[C@@H](C)C(=O)N1CCC[C@H]1C(N)=O)C(C)C [hCT] | 148 ± 8 | 63 ± 5 | 48 ± 6 | 40 ± 8 | 53 ± 5
 |  |  |  |  | CC(C)C[C@H](NC(=O)[C@H](CC(N)=O)NC(=O)[C@H](CC(N)=O)NC(=O)[C@H](CO)NC(=O)[C@H](CO)NC(=O)[C@H](CCCNC(=N)N)NC(=O)[C@@H](NC(=O)[C@H](CC(C)C)NC(=O)[C@H](Cc1ccccc1)NC(=O)[C@H](CC(N)=O)NC(=O)[C@H](C)NC(=O)[C@H](CC(C)C)NC(=O)[C@H](CCCNC(=N)N)NC(=O)[C@H](CCC(N)=O)NC(=O)[C@@H](NC(=O)[C@H](C)NC(=O)[C@@H]1CSSC[C@H](NC(=O)[C@@H](N)CCCCN)C(=O)N[C@@H](CC(N)=O)C(=O)N[C@@H]([C@@H](C)O)C(=O)N[C@@H](C)C(=O)N[C@@H]([C@@H](C)O)C(=O)N1)[C@@H](C)O)C(C)C)C(=O)NCC(=O)N1CCC[C@H]1C(=O)N[C@H](C(=O)N[C@@H](CC(C)C)C(=O)N1CCC[C@H]1C(=O)N1CCC[C@H]1C(=O)N[C@H](C(=O)N[C@@H](CC(N)=O)C(=O)N[C@H](C(=O)NCC(=O)N[C@@H](CO)C(=O)N[C@@H](CC(N)=O)C(=O)N[C@H](C(=O)N[C@@H](Cc1ccc(O)cc1)C(N)=O)[C@@H](C)O)C(C)C)[C@@H](C)O)C(C)C [rAmy] | 82 ± 8 | 49 ± 6 | 28 ± 5 |  | 40 ± 8
